Results on 3 substances are retold here after US7232800B2, “Derivatives of magainin and methods of production thereof” (priority 2001, dated 2007).

Series [1] deals with Escherichia coli JM103. The class given is cell-based. How it is done:
The anti-microbial effect of the Magainin(Leu21, Ser23, Arg24) was conducted according to the following procedures, with the comparison of that of the naturally occurring Magainin.
The bacterial strain of Escherichia coli JM103 and staphylococcus aureus were employed.
The bacteria were cultivated at 37° centigrade, and diluted to 1×10^6 bacteria/ml. 20 mM of the sterilized Tris-HCl buffer (pH6.5) was added. Then the Magainin derivative and the naturally occurring Magainin II with various concentrations were added respectively, and incubated at 37° centigrade for different time, 50 μl of the cultures was taken and spread on an agar plate, and incubated at 37° centigrade overnight. The remaining bacteria colonies were accounted for, and the percent of the killed bacteria was calculated.
The ant-microbial effects of Magainin (Leu21, Ser23, Arg24) were tested with comparison with that of the naturally occurring Magainin II. […] The anti-microbial effect of Magainin (Leu21, Ser23, Arg24) on Staphylococcus aureus can be seen from table 4, and the result of time-kill study of Magainin (Leu21, Ser23, Arg24) was shown in FIG. 1.

Series [2] deals with mice of Kun-ming species. Description: Acute toxicity test. The following applies: one week observation; for Livability: mice. The class given is in vivo. How it is done:
Six mice of Kun-ming species were divided into three groups randomly. Mice in the first group were intraperitoneally injected with 100 μg Magainin (Leu21, Ser23, Arg24) which is prepared by the method described in example 1, Mice in the second group were injected with 200 μg Magainin (Leu21, Ser23, Arg24), while those in the third group were injected with 1000 μg Magainin (Leu21, Ser23, Arg24). The toxicity of Magainin (Leu21, Ser23, Arg24) was determined by observing the influence of injection to the survival of the mice.

Series [3] deals with erythrocytes (blood derived from SD rat). Description: Hemolysis test. The class given is cell-based. The procedure:
3 ml of 0.9% sodium chloride solution was added into three tubes separately, followed by addition of 100 μl blood derived from SD rat (provided by Shanghai Laboratory Animal Center, Chinese Academic Sciences) respectively.
As a negative control, the naturally occurring Magainin peptide (obtained from Sigma) was dissolved in sterile water, and the Magainin peptide solution with a concentration of 1 mg/ml was prepared. 300 μl, 1.5 ml and 3 ml of such solution were added into three tubes respectively. After incubation at room temperature for 30 minutes, centrifugation was conducted at 3000 rpm, and supernates in three tubes was taken to determine the optical density at 590 nm with a spectrophotometer.
In the testing group, Hemolysis effect of the Magainin (Leu21, Ser23, Arg24) was examined. Magainin (Leu21, Ser23, Arg24) peptide was dissolved in sterile water to prepare the solution with a concentration of 1 mg/ml, 300 μl, 1.5 ml and 3 m of the solution were added into three tubes respectively, and the hemolysis test was conducted using the same method as applied to the negative control group.
In the positive control group, 0.1% of Triton X-100 (obtained from Sigma Aldrich) was employed aid the hemolysis test was performed according to the steps prescribed above.
In this test, erythrocyte will be precipitated after centrifigation and supernate appear red in the circumstance hemolysis has occurred.

Like-named read-outs stand apart in the source and are kept apart here. Where no end group is shown, it is not given here.

Turning to “GIGKFLHSAKKFGKAFVGEILNSR [Magainin (Leu21, Ser23, Arg24)]”, the Bacteria killed % is 71.3% in series [1] (10 μg/ml, 3 hr); 44.2% in series [1] (10 μg/ml, 4 hr); 97.8% in series [1] (20 μg/ml, 3 hr); 99.1% in series [1] (20 μg/ml, 4 hr). The Livability in series [2] (100 μg intraperitoneal injection), in series [2] (200 μg intraperitoneal injection) and in series [2] (1000 μg intraperitoneal injection) was 100% each time. For the same substance, the “survival of the mice (in words)” value in series [2] (100, 200 and 1000 μg intraperitoneal) is reported as “all survived”.
For “GIGKFLHSAKKFGKAFVGEIMNS [Naturally occurring Magainin, Magainin II]”, the Bacteria killed % amounted to 75.4% in series [1] (10 μg/ml, 3 hr); 84.9% in series [1] (10 μg/ml, 4 hr); 97.5% in series [1] (20 μg/ml, 3 hr); 99.2% in series [1] (20 μg/ml, 4 hr). Also, the Hemolysis % is given as 0% in series [3] (100 μg/ml, 30 minutes room temperature); 0% in series [3] (500 μg/ml, 30 minutes room temperature); 1.9% in series [3] (1000 μg/ml, 30 minutes room temperature).
With Triton X-100 [Tritonx-100], in series [3] (0.1%, positive control), the Hemolysis % came to 100%.
